US20110237676A1, “SPERMICIDAL AND MICROBICIDAL COMPOSITIONS” (LEHIGH UNIVERSITY, priority 2007, published 2011)

Legend:
[1] = system: sperm cells (whole semen); experiment: Sperm motility of treated whole semen scored by differential interference microscopy (DIC); format: cell-based, human
Experimental: (§1) The general experimental protocol was as follows: Whole semen, obtained from human subjects after informed consent, was treated with various concentrations of fluorous surfactants. Samples were incubated for 5-10 min at 37° C. and 5% CO2. Semen samples were diluted in an isotonic buffered human sperm medium containing glucose. Sperm motility was scored as “% motility” using differential interference microscopy (“DIC”). Cell necropsy was determined by propidium iodide (“PI”) staining, which is known to stain the DNA of dead cells, and “% death” was scored using epifluorescence microscopy (stained and unstained sperm cells were counted to obtain a live/dead ratio). Acrosome integrity was determined with epifluorescence microscopy and fluorescein-conjugated Pisum sativum agglutinin (“FITC-PSA”) staining, the staining patterns of which are known to indicate the status of the acrosomal membrane.
(§2) To validate the general experimental protocol, the motility of whole semen treated with N-9 for 5 min was determined using DIC microscopy and PI staining Results are presented in Table 1.

[2] = system: sperm cells (whole semen); experiment: Sperm cell necropsy by propidium iodide (PI) staining, epifluorescence microscopy; format: cell-based, human
Experimental: as §1, §2

[3] = system: Candida albicans; experiment: Effects on microbes: growth inhibition of Candida albicans; format: cell-based; conditions: for inhibition of growth of Candida: 400 mM
Source text: (§3) Fluorous surfactants also disrupt the membranes of pathogenic microbes, and they therefore have microbicidal activities. Preferably, they are toxic to pathogenic microorganisms, yet compatible with the flora normally found in human mucosal (e.g., vaginal) tissues. The effects of various fluorous surfactants on some laboratory models of pathogenic microorganisms (Escherichia coli, Saccharomyces cerevisiae, and Candida albicans) were studied.

[4] = system: acrosome of human spermatozoa; experiment: Acrosome integrity by FITC-PSA staining, epifluorescence microscopy; format: cell-based; conditions: average; for Type I: bright acrosome; for Type III: equatorial segment; for Type II: medium acrosome; for Type IV: no labeling
Experimental: as §1
Staining with fluorescein isothiocyanate Pisium sativum agglutinin (“FITC-PSA”) is known to stain components of the acrosome, and the staining pattern differs depending on the condition of the acrosomal membrane. This technique may be used to identify whether the acrosome is intact. Various patterns of fluorescence are seen after labeling of air-dried human spermatozoa with FITC lectins, including a bright acrosome (Type I), a medium acrosome (Type II), an equatorial segment (Type III), and no labeling (Type IV). See, e.g., Mortimer et al., “Specific Labelling by Peanut Agglutinin of The Outer Acrosomal Membrane of The Human Spermatozoon,” J. Reprod. Fert. 81, 127-35 (1987). Averages of FTIC-PSA results are presented in Table 6, which includes percentages of acrosomes compromised and types of sperm visualized in the control and treated samples.

[5] = system: Escherichia coli; experiment: Effects on microbes: growth inhibition of E. coli; format: cell-based
Source text: as §3

[6] = system: HeLa cells; experiment: Effects on HeLa (cervix) cells, morphology by microscopy; format: cell-based, human; conditions: 1.76 mM, 30 min
Source text: The effects of nonoxynol-9 and various fluorous surfactants on HeLa cells, which are a laboratory model for human cervical cells, were studied. […] Accordingly, it is believed that use of a spermicidal fluorous surfactant will be less irritating to human vaginal tissue.

Compound: O=S(=O)([O-])CCCOCC(F)(F)C(F)(F)F.[Na+] [F5-PS]
- % Motility ([1]; 6%, 5 min): 1%
- % Motility ([1]; 9%, 5 min): 0%
- % Motility ([1]; 9%, 10 min): 0%
- % Motility ([1]; 12%, 5 min): 0%
- % Death ([2]; 6%, 5 min): 91%
- % Death ([2]; 6%, 10 min): 99%
- % Death ([2]; 9%, 5 min): 98%
- % Death ([2]; 9%, 10 min): 96%
- % Death ([2]; 12%, 5 min): 99%

Compound: OCCOCCOCCOCC(F)(F)C(F)(F)F [F5-TEG, F5-triethylene glycol]
- inhibition of Candida relative to F7-TEG [3]: somewhat less inhibitory
- Acrosome Compromised ([4]; 5%): 95%
- Acrosome Not Compromised ([4]; 5%): 5%
- Type I ([4]; 5%): 5%
- Type III ([4]; 5%): 3%
- Type II ([4]; 5%): 28%
- Type IV ([4]; 5%): 64%
- Acrosome Compromised ([4]; 6%): 98%
- Acrosome Not Compromised ([4]; 6%): 2%
- Type I ([4]; 6%): 2%
- Type III ([4]; 6%): 1%
- Type II ([4]; 6%): 3%
- Type IV ([4]; 6%): 93%
- Acrosome Compromised ([4]; 10%): 67%
- Acrosome Not Compromised ([4]; 10%): 33%
- Type I ([4]; 10%): 33%
- Type III ([4]; 10%): 2%
- Type II ([4]; 10%): 26%
- Type IV ([4]; 10%): 38%
- inhibition to growth of E. coli relative to non-fluorous homologs [5]: greater inhibition
- inhibition of E. coli relative to F7-TEG ([5]; comparable doses): less inhibition
- % Motility ([1]; 4%, 5 min): 0%
- % Motility ([1]; 5%, 5 min): 0%
- % Motility ([1]; 6%, 5 min): 0%
- % Motility ([1]; 7%, 5 min): 0%
- % Motility ([1]; 8%, 5 min): 0%
- % Motility ([1]; 9%, 5 min): 0%
- % Motility ([1]; 10%, 5 min): 0%
- % Motility ([1]; 10%, 10 min): 0%
- % Motility ([1]; 12%, 5 min): 0%
- % Motility ([1]; 15%, 5 min): 0%
- % Motility ([1]; 15%, 10 min): 0%
- % Death ([2]; 4%, 5 min): 100%
- % Death ([2]; 5%, 5 min): 96%
- % Death ([2]; 6%, 5 min): 100%
- % Death ([2]; 7%, 5 min): 98%
- % Death ([2]; 8%, 5 min): 99%
- % Death ([2]; 9%, 5 min): 100%
- % Death ([2]; 10%, 5 min): 100%
- % Death ([2]; 10%, 10 min): 100%
- % Death ([2]; 12%, 5 min): 96%
- % Death ([2]; 15%, 5 min): 94%
- % Death ([2]; 15%, 10 min): 100%

Compound: O=S(=O)([O-])CCCOCC(F)(F)C(F)(F)C(F)(F)F.[Na+] [F7-PS, sodium 3-(2,2,3,3,4,4,4-heptafluoro-butoxy)-propane-1-sulfonate]
- inhibition of growth of Candida ([3]; exposure in the order of 24 hours): significant inhibition of growth
- inhibition of growth of Candida ([3]; exposure limited to 3 or 6 hours): allowed recovery of growth
- Acrosome Compromised ([4]; 3%): 36%
- Acrosome Not Compromised ([4]; 3%): 64%
- Type I ([4]; 3%): 64%
- Type III ([4]; 3%): 0%
- Type II ([4]; 3%): 13%
- Type IV ([4]; 3%): 22%
- Acrosome Compromised ([4]; 4%): 100%
- Acrosome Not Compromised ([4]; 4%): 0%
- Type I ([4]; 4%): 0%
- Type III ([4]; 4%): <1%
- Type II ([4]; 4%): 4%
- Type IV ([4]; 4%): 95%
- Acrosome Compromised ([4]; 7%): 41%
- Acrosome Not Compromised ([4]; 7%): 59%
- Type I ([4]; 7%): 59%
- Type III ([4]; 7%): 0%
- Type II ([4]; 7%): 40%
- Type IV ([4]; 7%): 1%
- inhibition of E. coli ([5]; 250 mM, compared with F7-TEG/F5-TEG treatments): comparable inhibition
- % Motility ([1]; 4%, 5 min): <1%
- % Motility ([1]; 5%, 5 min): <1%
- % Motility ([1]; 5%, 10 min): 0%
- % Motility ([1]; 7%, 5 min): 0%
- % Death ([2]; 4%, 5 min): 90%
- % Death ([2]; 4%, 10 min): 99%
- % Death ([2]; 5%, 5 min): 96%
- % Death ([2]; 5%, 10 min): 96%
- % Death ([2]; 7%, 5 min): 100%

Compound: OCCOCCOCCOCC(F)(F)C(F)(F)C(F)(F)F [F7-TEG, F7-triethylene glycol]
- inhibition of Candida ([3]; 5%, exposure 3 hours or longer): substantial inhibition
- Acrosome Compromised ([4]; 5%): 87%
- Acrosome Not Compromised ([4]; 5%): 13%
- Type I ([4]; 5%): 13%
- Type III ([4]; 5%): <1%
- Type II ([4]; 5%): 59%
- Type IV ([4]; 5%): 28%
- Acrosome Compromised ([4]; 6%): 88%
- Acrosome Not Compromised ([4]; 6%): 13%
- Type I ([4]; 6%): 13%
- Type III ([4]; 6%): 5%
- Type II ([4]; 6%): 25%
- Type IV ([4]; 6%): 58%
- Acrosome Compromised ([4]; 10%): 96%
- Acrosome Not Compromised ([4]; 10%): 4%
- Type I ([4]; 10%): 4%
- Type III ([4]; 10%): 3%
- Type II ([4]; 10%): 34%
- Type IV ([4]; 10%): 59%
- inhibition to growth of E. coli relative to non-fluorous homologs [5]: greater inhibition
- growth of E. coli ([5]; final concentrations of 1% or greater, 3 hours or longer): unable to grow
- % Motility ([1]; 5%, 5 min): 0%
- % Motility ([1]; 6%, 5 min): 0%
- % Motility ([1]; 7%, 5 min): 0%
- % Motility ([1]; 8%, 5 min): 0%
- % Motility ([1]; 9%, 5 min): 0%
- % Motility ([1]; 10%, 5 min): 1%
- % Motility ([1]; 12%, 5 min): 0%
- % Motility ([1]; 15%, 5 min): 0%
- % Motility ([1]; 15%, 10 min): 0%
- % Death ([2]; 5%, 5 min): 97%
- % Death ([2]; 5%, 10 min): 99%
- % Death ([2]; 6%, 5 min): 98%
- % Death ([2]; 7%, 5 min): 99%
- % Death ([2]; 8%, 5 min): 100%
- % Death ([2]; 9%, 5 min): 100%
- % Death ([2]; 10%, 5 min): 95%
- % Death ([2]; 12%, 5 min): 99%
- % Death ([2]; 15%, 5 min): 98%
- % Death ([2]; 15%, 10 min): 100%

Compound: nonoxynol-9 [N-9, reference compound]
- morphological changes of HeLa cells [6]: significant morphological changes
- % Motility ([1]; 0.001%, 5 min, whole semen): 43%
- % Motility ([1]; 0.005%, 5 min, whole semen): 60%
- % Motility ([1]; 0.01%, 5 min, whole semen): <1%
- % Motility ([1]; 0.1%, 5 min, whole semen): 0%
- % Death ([2]; 0.001%, 5 min, PI staining): 38%
- killing of sperm cells ([2]; 1.76 mM, 5 min): kill essentially all sperm cells
- % Death ([2]; 0.005%, 5 min, PI staining): 60%
- % Death ([2]; 0.01%, 5 min, PI staining): 67%
- % Death ([2]; 0.1%, 5 min, PI staining): 94%
